Where “and” joins values, the source holds several entries; their conditions need not be identical. Equal entries are not always repeated.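 Five concentrations, 48 hours, 96-well plates. GI50: concentration for 50% inhibition of growth. Definition used: TGI = concentration required for complete inhibition of growth.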
Columns and labels:
Assay in all cases: inhibition of tumour cell growth, NCI panel, 48 h
COLO 205 colon = tested on: COLO 205 colon
SK-MEL-28 melanoma = tested on: SK-MEL-28 melanoma
A549 NSCLC = tested on: A549 NSCLC
HCT-116 colon = tested on: HCT-116 colon
RPMI-8226 leukemia = tested on: RPMI-8226 leukemia
SNB-19 CNS = tested on: SNB-19 CNS
TK-10 renal = tested on: TK-10 renal
HOP-62 NSCLC = tested on: HOP-62 NSCLC
HOP-92 NSCLC = tested on: HOP-92 NSCLC
NCI-H226 lung = tested on: NCI-H226 lung

SMILES	GI50 (COLO 205 colon)	TGI (COLO 205 colon)	GI50 (SK-MEL-28 melanoma)	TGI (SK-MEL-28 melanoma)	GI50 (A549 NSCLC)	TGI (A549 NSCLC)	GI50 (HCT-116 colon)	TGI (HCT-116 colon)	GI50 (RPMI-8226 leukemia)	TGI (RPMI-8226 leukemia)	GI50 (SNB-19 CNS)	TGI (SNB-19 CNS)	GI50 (TK-10 renal)	TGI (TK-10 renal)	GI50 (HOP-62 NSCLC)	TGI (HOP-62 NSCLC)	GI50 (HOP-92 NSCLC) [µM]	TGI (HOP-92 NSCLC)	GI50 (NCI-H226 lung)	TGI (NCI-H226 lung)
ClCc1cccc(Cn2cnc3c(Cl)ncnc32)c1	3.09 µM	10.5 µM	2.23 µM	5.69 µM	19.4 µM	39.4 µM	1.48 µM	3.07 µM	3.82 µM	16.1 µM	2.66 µM	12.5 µM	4.59 µM	16.1 µM	2.6 µM	5.11 µM	2.46	6.22 µM	2.15 µM	4.38 µM
CNc1ccc2nc3ccc(=[N+](C)C)cc-3sc2c1	0.626 µM and 0.365 µM	3.03 µM and 1.44 µM	4.25 µM and 1.55 µM	14.8 µM and 9.27 µM	0.417 µM and 0.338 µM	12.1 µM and 5.21 µM	0.304 µM and 0.246 µM	8.7 µM and 1.47 µM	0.287 µM and 0.8 µM	14.6 µM and 28 µM	0.747 µM and 0.324 µM	8.83 µM and 6.11 µM	2.3 µM and 3.36 µM	7.69 µM and 14.6 µM	2.54 µM and 0.867 µM	15.7 µM and 7.92 µM		29.8 µM and 5.06 µM	2.31 µM and 2.53 µM	10.8 µM and 12.4 µM
C=C1CC2(OC1=O)C(=O)N(CCCCCCCN1C(=O)C3(CC(=C)C(=O)O3)c3ccccc31)c1ccccc12 (centres undefined)	1.38 µM	5.58 µM	1.94 µM	7.3 µM	9.16 µM	24.8 µM	1.49 µM	5.07 µM	0.841 µM	3.33 µM	8.52 µM	22 µM	2.19 µM	8.32 µM	6.8 µM	15.4 µM	1.03	3.64 µM	1 µM	2.76 µM
Cc1ccc(CNc2c3ccccc3nc3ccccc23)cc1	1.57 µM	3.59 µM	1.84 µM	4.16 µM	1.94 µM	5.05 µM	0.88 µM	6.6 µM	1.48 µM	3.86 µM	3.33 µM	14.2 µM	2.97 µM	12.6 µM	3.58 µM	16.8 µM	1.36	5.05 µM	1.87 µM	5.12 µM
CNC(=O)c1cc(OC2CCC(NC(=O)Nc3ccc(Cl)c(C(F)(F)F)c3)CC2)ccn1 (centres undefined)	8.81 µM	22.3 µM	11.4 µM	24.6 µM	4.53 µM	26.6 µM	4.35 µM	16.6 µM	2.86 µM	14.8 µM	7.91 µM	32.2 µM	18.4 µM	49.2 µM	15 µM	31.4 µM	6.8	27.1 µM	9.99 µM	25.6 µM
COc1ccc(N=C2CSc3nnc(-c4cc(F)c(Cl)cc4Cl)n3N2)cc1	1.81 µM	16 µM	2.38 µM	21.4 µM	1.5 µM	4.42 µM	0.43 µM	1.96 µM	1.41 µM	11 µM	0.776 µM	18.9 µM	1.4 µM	4.06 µM	0.458 µM	2.77 µM	2.83	19.1 µM	3.84 µM	38.2 µM
